Experimental data taken from patent publication US20260306644A1, “ANTIBODY RECRUITING MOLECULES FOR THE TREATMENT OF CORONAVIRUS DISEASE-19” (priority 2023, published 2026).
Several values for one entry are separate records, joined by “and”; a condition that tells them apart may be missing. Identical values can stand only once. Like-named read-outs stand apart in the source and are kept apart here. Positions of bridges follow the written chain, without caps; N, C: chain ends. Non-standard residues stand in square brackets, D forms with d. Residues, ends and D or L forms follow the SMILES beside them. No end group written: not given here. Tic = O=C(O)[C@@H]1Cc2ccccc2CN1; Aib = CC(C)(N)C(=O)O

Biological target: T1, SARS-CoV-2 Spike A (wild-type) (Severe acute respiratory syndrome coronavirus 2, UniProt P0DTC2)
T1 construct: purchased Meso Scale Diagnostics, LLC V-PLEX SARS-CoV-2 Panel 13 (ACE2) Kit / Panel 23 (ACE2) Kit
Test: MSD ACE2 competition assay (inhibition of Spike binding with ACE2, ECL), A (wild-type)

[1] = IC50 Wild Type, Wild Type Spike

Molecule: CC[C@H](C)[C@H](N)C(=O)N[C@@H](CC(C)C)C(=O)N[C@@H](CCC(N)=O)C(=O)N[C@@H](CCCCN)C(=O)N[C@H](C(=O)N[C@@H](Cc1ccc(O)cc1)C(=O)N[C@@H](CCC(=O)O)C(=O)N[C@H](C(=O)N[C@@H](CCSC)C(=O)N[C@@H](CCCNC(=N)N)C(=O)N[C@@H](CC(C)C)C(=O)N[C@H]1CSSC[C@@H](C(=O)N[C@@H](CCSC)C(=O)N[C@@H](CCCNC(=N)N)C(=O)N[C@H](C(=O)N[C@@H](CO)C(=O)N[C@@H](CC(=O)O)C(=O)N[C@@H](CC(C)C)C(=O)N[C@H](C(=O)N[C@@H](Cc2ccc(O)cc2)C(=O)N[C@@H](CCC(=O)O)C(=O)N[C@@H](Cc2ccccc2)C(=O)N[C@@H](CCSC)C(=O)N[C@@H](CCCCN)C(=O)N[C@@H](CCCCN)C(=O)NCC(N)=O)[C@@H](C)CC)C(C)C)NC(=O)[C@H](C)NC(=O)[C@H](CCC(=O)O)NC(=O)[C@H](C)NC(=O)[C@H](Cc2c[nH]cn2)NC(=O)CNC(=O)[C@H](CC(C)C)NC(=O)[C@H](CCC(=O)O)NC(=O)[C@H](CC(=O)O)NC1=O)[C@@H](C)CC)[C@@H](C)CC [Compound 179] (H-ILQKIYEIMRLCDELGHAEACMRVSDLIYEFMKKG-NH2; disulfide 12-21)
- IC50 [1]: 0.152 µM and 0.168 µM

Molecule: CC[C@H](C)[C@H](NC(=O)[C@H](CC(C)C)NC(=O)[C@H](CC(=O)O)NC(=O)[C@H](CO)NC(=O)[C@@H](NC(=O)[C@H](CCCNC(=N)N)NC(=O)[C@H](CCSC)NC(=O)[C@@H]1CSSC[C@H](NC(=O)[C@H](CC(C)C)NC(=O)[C@H](CCCNC(=N)N)NC(=O)[C@H](CCSC)NC(=O)[C@@H](NC(=O)[C@H](CCC(=O)O)NC(=O)[C@H](Cc2ccc(O)cc2)NC(=O)[C@@H](NC(=O)[C@H](CCCCN)NC(=O)[C@H](CCC(N)=O)NC(=O)[C@H](CC(C)C)NC(=O)[C@@H](NC(=O)[C@H](Cc2c[nH]c3ccccc23)NC(=O)[C@H](CCC(=O)O)NC(=O)[C@H](CCCCN)NC(=O)[C@@H](N)CC(=O)O)[C@@H](C)CC)[C@@H](C)CC)[C@@H](C)CC)C(=O)N[C@@H](CC(=O)O)C(=O)N[C@@H](CCC(=O)O)C(=O)N[C@@H](CC(C)C)C(=O)NCC(=O)N[C@@H](Cc2c[nH]cn2)C(=O)N[C@@H](C)C(=O)N[C@@H](CCC(=O)O)C(=O)N[C@@H](C)C(=O)N1)C(C)C)C(=O)N[C@@H](Cc1ccc(O)cc1)C(=O)N[C@@H](CCC(=O)O)C(=O)N[C@@H](Cc1ccccc1)C(=O)N[C@@H](CCSC)C(=O)N[C@@H](CCCCN)C(=O)N[C@@H](CCCCN)C(=O)NCC(N)=O [Compound 138] (H-DKEWILQKIYEIMRLCDELGHAEACMRVSDLIYEFMKKG-NH2; disulfide 16-25)
- IC50 (IC50, Wild Type, Wild Type): 0.0127 µM

Molecule: {CH2CO}-ASYHLGELVW[Tic][Aib]C[dE]ILQKIYEIMRLLDELGHAEASMRVSDLIYEFMKK (thioether N-13) [Compound 131]
- IC50 [1]: 0.0315 µM

Molecule: CC[C@H](C)[C@H](NC(=O)[C@H](CC(C)C)NC(=O)[C@H](CC(=O)O)NC(=O)[C@H](CO)NC(=O)[C@@H](NC(=O)[C@H](CCCNC(=N)N)NC(=O)[C@H](CCSC)NC(=O)[C@H](CO)NC(=O)[C@H](C)NC(=O)[C@H](CCC(=O)O)NC(=O)[C@H](C)NC(=O)[C@H](Cc1c[nH]cn1)NC(=O)CNC(=O)[C@H](CC(C)C)NC(=O)[C@H](CCC(=O)O)NC(=O)[C@H](CC(=O)O)NC(=O)[C@H](CC(C)C)NC(=O)[C@H](CC(C)C)NC(=O)[C@H](CCCNC(=N)N)NC(=O)[C@H](CCSC)NC(=O)[C@@H](NC(=O)[C@H](CCC(=O)O)NC(=O)[C@H](Cc1ccc(O)cc1)NC(=O)[C@@H](NC(=O)[C@H](CCCCN)NC(=O)[C@H](CCC(N)=O)NC(=O)[C@H](CC(C)C)NC(=O)[C@@H](NC(=O)[C@H](Cc1c[nH]c2ccccc12)NC(=O)[C@H](CCC(=O)O)NC(=O)[C@H](CCCCN)NC(=O)[C@@H](N)CC(=O)O)[C@@H](C)CC)[C@@H](C)CC)[C@@H](C)CC)C(C)C)C(=O)N[C@@H](Cc1ccc(O)cc1)C(=O)N[C@@H](CCC(=O)O)C(=O)N[C@@H](Cc1ccccc1)C(=O)N[C@@H](CCSC)C(=O)N[C@@H](CCCCN)C(=O)N[C@@H](CCCCN)C(=O)NCC(=O)O [Compound 102]
- IC50 [1]: 0.00596 µM

Molecule: CC[C@H](C)[C@H](NC(=O)[C@H](CC(C)C)NC(=O)[C@H](CC(=O)O)NC(=O)[C@H](CO)NC(=O)[C@@H](NC(=O)[C@H](CCCNC(=N)N)NC(=O)[C@H](CCSC)NC(=O)[C@H](CO)NC(=O)[C@H](C)NC(=O)[C@H](CCC(=O)O)NC(=O)[C@H](C)NC(=O)[C@H](Cc1c[nH]cn1)NC(=O)CNC(=O)[C@H](CC(C)C)NC(=O)[C@H](CCC(=O)O)NC(=O)[C@H](CC(=O)O)NC(=O)[C@H](CC(C)C)NC(=O)[C@H](CC(C)C)NC(=O)[C@H](CCCNC(=N)N)NC(=O)[C@H](CCSC)NC(=O)[C@@H](NC(=O)[C@H](CCC(=O)O)NC(=O)[C@H](Cc1ccc(O)cc1)NC(=O)[C@@H](NC(=O)[C@H](CCCCN)NC(=O)[C@H](CCC(N)=O)NC(=O)[C@H](CC(C)C)NC(=O)[C@@H](NC(=O)[C@H](Cc1c[nH]c2ccccc12)NC(=O)[C@H](CCC(=O)O)NC(=O)[C@H](CCCCN)NC(=O)[C@H](CC(=O)O)NC(C)=O)[C@@H](C)CC)[C@@H](C)CC)[C@@H](C)CC)C(C)C)C(=O)N[C@@H](Cc1ccc(O)cc1)C(=O)N[C@@H](CCC(=O)O)C(=O)N[C@@H](Cc1ccccc1)C(=O)N[C@@H](CCSC)C(=O)N[C@@H](CCCCN)C(=O)N[C@@H](CCCCN)C(=O)N[C@@H](CC(=O)O)C(=O)N[C@H]1CSSC[C@@H](C(=O)N[C@H](C(=O)O)[C@@H](C)O)NC(=O)[C@H](Cc2c[nH]c3ccccc23)NC(=O)[C@H](C(C)C)NC(=O)[C@H](CC(C)C)NC(=O)[C@H](CCC(=O)O)NC(=O)CNC(=O)[C@H](CC(C)C)NC(=O)[C@H](Cc2c[nH]cn2)NC(=O)[C@H](Cc2c[nH]c3ccccc23)NC(=O)[C@H](C)NC1=O [Compound 114]
- IC50 [1]: 0.0407 µM

Molecule: CC[C@H](C)[C@H](NC(=O)[C@H](CC(C)C)NC(=O)[C@H](CC(=O)O)NC(=O)[C@H](CO)NC(=O)[C@@H](NC(=O)[C@H](CCCNC(=N)N)NC(=O)[C@H](CCSC)NC(=O)[C@@H]1CSSC[C@H](NC(=O)[C@H](CC(C)C)NC(=O)[C@H](CCCNC(=N)N)NC(=O)[C@H](CCSC)NC(=O)[C@@H](NC(=O)[C@H](CCC(=O)O)NC(=O)[C@H](Cc2ccc(O)cc2)NC(=O)[C@@H](NC(=O)[C@H](CCCCN)NC(=O)[C@H](CCC(N)=O)NC(=O)[C@H](CC(C)C)NC(=O)[C@@H](NC(=O)[C@H](Cc2c[nH]c3ccccc23)NC(=O)[C@H](CCC(=O)O)NC(=O)[C@H](CCCCN)NC(=O)[C@H](CC(=O)O)NC(C)=O)[C@@H](C)CC)[C@@H](C)CC)[C@@H](C)CC)C(=O)N[C@@H](CC(=O)O)C(=O)N[C@@H](CCC(=O)O)C(=O)N[C@@H](CC(C)C)C(=O)NCC(=O)N[C@@H](Cc2c[nH]cn2)C(=O)N[C@@H](C)C(=O)N[C@@H](CCC(=O)O)C(=O)N[C@@H](C)C(=O)N1)C(C)C)C(=O)N[C@@H](Cc1ccc(O)cc1)C(=O)N[C@@H](CCC(=O)O)C(=O)N[C@@H](Cc1ccccc1)C(=O)N[C@@H](CCSC)C(=O)N[C@@H](CCCCN)C(=O)N[C@@H](CCCCN)C(=O)NCC(N)=O [Compound 175] (Ac-DKEWILQKIYEIMRLCDELGHAEACMRVSDLIYEFMKKG-NH2; disulfide 16-25)
- IC50 (read-out: IC50, Wild Type, Wild Type): 0.00768 µM

Molecule: CC[C@H](C)[C@H](NC(=O)[C@H](CC(C)C)NC(=O)[C@H](CC(=O)O)NC(=O)[C@H](CO)NC(=O)[C@@H](NC(=O)[C@H](CCCNC(=N)N)NC(=O)[C@H](CCSC)NC(=O)[C@@H]1CSSC[C@H](NC(=O)[C@H](CC(C)C)NC(=O)[C@H](CCCNC(=N)N)NC(=O)[C@H](CCSC)NC(=O)[C@@H](NC(=O)[C@H](CCC(=O)O)NC(=O)[C@H](Cc2ccc(O)cc2)NC(=O)[C@@H](NC(=O)[C@H](CCCCN)NC(=O)[C@@H](N)CCC(N)=O)[C@@H](C)CC)[C@@H](C)CC)C(=O)N[C@@H](CC(=O)O)C(=O)N[C@@H](CCC(=O)O)C(=O)N[C@@H](CC(C)C)C(=O)NCC(=O)N[C@@H](Cc2c[nH]cn2)C(=O)N[C@@H](C)C(=O)N[C@@H](CCC(=O)O)C(=O)N[C@@H](C)C(=O)N1)C(C)C)C(=O)N[C@@H](Cc1ccc(O)cc1)C(=O)N[C@@H](CCC(=O)O)C(=O)N[C@@H](Cc1ccccc1)C(=O)N[C@@H](CCSC)C(=O)N[C@@H](CCCCN)C(=O)N[C@@H](CCCCN)C(=O)NCC(N)=O [Compound 177] (H-QKIYEIMRLCDELGHAEACMRVSDLIYEFMKKG-NH2; disulfide 10-19)
- IC50 [1]: > 10 µM

Molecule: CC[C@H](C)[C@H](NC(C)=O)C(=O)N[C@@H](CC(C)C)C(=O)N[C@@H](CCC(N)=O)C(=O)N[C@@H](CCCCN)C(=O)N[C@H](C(=O)N[C@@H](Cc1ccc(O)cc1)C(=O)N[C@@H](CCC(=O)O)C(=O)N[C@H](C(=O)N[C@@H](CCSC)C(=O)N[C@@H](CCCNC(=N)N)C(=O)N[C@@H](CC(C)C)C(=O)N[C@H]1CSSC[C@@H](C(=O)N[C@@H](CCSC)C(=O)N[C@@H](CCCNC(=N)N)C(=O)N[C@H](C(=O)N[C@@H](CO)C(=O)N[C@@H](CC(=O)O)C(=O)N[C@@H](CC(C)C)C(=O)N[C@H](C(=O)N[C@@H](Cc2ccc(O)cc2)C(=O)N[C@@H](CCC(=O)O)C(=O)N[C@@H](Cc2ccccc2)C(=O)N[C@@H](CCSC)C(=O)N[C@@H](CCCCN)C(=O)N[C@@H](CCCCN)C(=O)NCC(N)=O)[C@@H](C)CC)C(C)C)NC(=O)[C@H](C)NC(=O)[C@H](CCC(=O)O)NC(=O)[C@H](C)NC(=O)[C@H](Cc2c[nH]cn2)NC(=O)CNC(=O)[C@H](CC(C)C)NC(=O)[C@H](CCC(=O)O)NC(=O)[C@H](CC(=O)O)NC1=O)[C@@H](C)CC)[C@@H](C)CC [Compound 180] (Ac-ILQKIYEIMRLCDELGHAEACMRVSDLIYEFMKKG-NH2; disulfide 12-21)
- IC50 [1]: 0.137 µM
